Laboratory results taken from patent US20260184693A1, “INHIBITORS OF SOLUTE CARRIER FAMILY 6A MEMBER 19 (SLC6A19) AND METHODS OF USE THEREOF” (Maze Therapeutics, Inc., priority 2022, published 2026).

Biological target: T1, human SLC6A19 (Homo sapiens, UniProt Q695T7)
T1 construct: expressed in transfected cells
T1 sequence (Q695T7 1-634): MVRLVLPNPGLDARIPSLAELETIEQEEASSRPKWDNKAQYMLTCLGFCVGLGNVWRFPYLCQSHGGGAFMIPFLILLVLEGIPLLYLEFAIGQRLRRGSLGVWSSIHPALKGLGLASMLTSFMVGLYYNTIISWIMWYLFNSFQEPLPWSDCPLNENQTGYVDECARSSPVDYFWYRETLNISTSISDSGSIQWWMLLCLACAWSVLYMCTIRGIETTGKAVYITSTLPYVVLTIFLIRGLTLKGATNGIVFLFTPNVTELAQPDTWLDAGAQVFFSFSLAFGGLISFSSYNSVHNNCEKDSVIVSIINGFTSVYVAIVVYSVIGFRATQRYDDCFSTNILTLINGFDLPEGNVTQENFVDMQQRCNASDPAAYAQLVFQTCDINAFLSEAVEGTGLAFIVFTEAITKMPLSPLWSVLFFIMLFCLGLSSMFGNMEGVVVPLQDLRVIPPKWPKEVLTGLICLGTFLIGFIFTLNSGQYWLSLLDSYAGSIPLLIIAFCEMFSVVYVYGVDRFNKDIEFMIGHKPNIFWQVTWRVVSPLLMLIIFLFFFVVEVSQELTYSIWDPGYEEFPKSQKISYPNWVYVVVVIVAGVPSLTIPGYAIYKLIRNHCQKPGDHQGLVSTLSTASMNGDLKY
T1 sequence (Q9HBJ8 15-222 partner): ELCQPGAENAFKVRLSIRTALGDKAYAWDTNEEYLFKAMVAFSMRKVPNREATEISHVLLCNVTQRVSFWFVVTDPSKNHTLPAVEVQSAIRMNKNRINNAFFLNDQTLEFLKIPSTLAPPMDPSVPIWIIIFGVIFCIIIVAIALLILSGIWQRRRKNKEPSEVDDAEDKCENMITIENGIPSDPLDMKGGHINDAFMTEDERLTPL
Experiment: Example B2: 13C6,15N-isoleucine uptake, RapidFire mass spectrometry, in CHO cells with doxycycline-inducible expression of human SLC6A19 and TMEM27
Format: cell-based
Settings: read-out: SLC6A19_RapidFire Uptake Assay IC50
Summary of the method: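 Labelled isoleucine (13C6,15N; 2 mM added) was given 20 min at 37 °C, following a 20-min compound pre-treatment (10-point 2-fold series, duplicate). Cells were doxycycline-induced CHO co-expressing human SLC6A19 and TMEM27. Intracellular label was quantified by RapidFire-MS peak areas against a 13C-leucine standard.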

IC50 [nM] | Compound
1000 | CN(C(=O)NCc1cc2cc(Cl)ccc2[nH]1)[C@@H]1CCCN(C(=O)c2ccn3ccnc3c2)C1 [Compound 76, (R)-3-((5-chloro-1H-indol-2-yl)methyl)-1-(1-(imidazo[1,2-a]pyridine-7-carbonyl)piperidin-3-yl)-1-methylurea]
6570 | Cc1cc(C(=O)N2CCC[C@@H](N(C)C(=O)NCc3cc4cc(Cl)ccc4[nH]3)C2)n(C)n1 [Compound 77, (R)-3-((5-chloro-1H-indol-2-yl)methyl)-1-(1-(1,3-dimethyl-1H-pyrazole-5-carbonyl)piperidin-3-yl)-1-methylurea]
1760 | COc1ccc(C(=O)N2CCC[C@@H](N(C)C(=O)NCc3cc4cc(Cl)ccc4[nH]3)C2)nc1 [Compound 78, (R)-3-((5-chloro-1H-indol-2-yl)methyl)-1-(1-(5-methoxypicolinoyl)piperidin-3-yl)-1-methylurea]
5630 | COC(C)(C)C(=O)N1CCC[C@@H](N(C)C(=O)NCc2cc3cc(Cl)ccc3[nH]2)C1 [Compound 79, (R)-3-((5-chloro-1H-indol-2-yl)methyl)-1-(1-(2-methoxy-2-methylpropanoyl)piperidin-3-yl)-1-methylurea]
5650 | CN(C(=O)NCc1cc2cc(Cl)ccc2[nH]1)[C@@H]1CCCN(C(=O)CC(C)(C)O)C1 [Compound 80, (R)-3-((5-chloro-1H-indol-2-yl)methyl)-1-(1-(3-hydroxy-3-methylbutanoyl)piperidin-3-yl)-1-methylurea]
1410 | CN(C(=O)NCc1cc2cc(Cl)ccc2[nH]1)[C@@H]1CCCN(C(=O)Cn2ccccc2=O)C1 [Compound 81, (R)-3-((5-chloro-1H-indol-2-yl)methyl)-1-methyl-1-(1-(2-(2-oxopyridin-1(2H)-yl)acetyl)piperidin-3-yl)urea]
3810 | COCC(C)C(=O)N1CCC[C@@H](N(C)C(=O)NCc2cc3cc(Cl)ccc3[nH]2)C1 (stereo partly drawn) [Compound 82, 3-((5-chloro-1H-indol-2-yl)methyl)-1-((3R)-1-(3-methoxy-2-methylpropanoyl)piperidin-3-yl)-1-methylurea]
4790 | CN(C(=O)NCc1cc2cc(Cl)ccc2[nH]1)[C@@H]1CCCN(C(=O)COc2ccc(=O)[nH]n2)C1 [Compound 83, (R)-3-((5-chloro-1H-indol-2-yl)methyl)-1-methyl-1-(1-(2-((6-oxo-1,6-dihydropyridazin-3-yl)oxy)acetyl)piperidin-3-yl)urea]
176 | CN(C(=O)NCc1cc2cc(Cl)ccc2[nH]1)[C@@H]1CCCN(C(=O)C2CCCC2)C1 [Compound 84, (R)-3-((5-chloro-1H-indol-2-yl)methyl)-1-(1-(cyclopentanecarbonyl)piperidin-3-yl)-1-methylurea]
369 | Cc1ccn(CC(=O)N2CCC[C@@H](N(C)C(=O)NCc3cc4cc(Cl)ccc4[nH]3)C2)n1 [Compound 85, (R)-3-((5-chloro-1H-indol-2-yl)methyl)-1-methyl-1-(1-(2-(3-methyl-1H-pyrazol-1-yl)acetyl)piperidin-3-yl)urea]
559 | CN(C(=O)NCc1cc2cc(Cl)ccc2[nH]1)[C@@H]1CCCN(C(=O)Cc2cnn(C)c2)C1 [Compound 86, (R)-3-((5-chloro-1H-indol-2-yl)methyl)-1-methyl-1-(1-(2-(1-methyl-1H-pyrazol-4-yl)acetyl)piperidin-3-yl)urea]
1670 | COc1ncc(C(=O)N2CCC[C@@H](N(C)C(=O)NCc3cc4cc(Cl)ccc4[nH]3)C2)cc1F [Compound 87, (R)-3-((5-chloro-1H-indol-2-yl)methyl)-1-(1-(5-fluoro-6-methoxynicotinoyl)piperidin-3-yl)-1-methylurea]
4080 | CC(=O)NC(C)C(=O)N1CCC[C@@H](N(C)C(=O)NCc2cc3cc(Cl)ccc3[nH]2)C1 (stereo partly drawn) [Compound 88, N-(1-((R)-3-(3-((5-chloro-1H-indol-2-yl)methyl)-1-methylureido)piperidin-1-yl)-1-oxopropan-2-yl)acetamide]
1080 | CC(=O)NCCC(=O)N1CCC[C@@H](N(C)C(=O)NCc2cc3cc(Cl)ccc3[nH]2)C1 [Compound 89, (R)-N-(3-(3-(3-((5-chloro-1H-indol-2-yl)methyl)-1-methylureido)piperidin-1-yl)-3-oxopropyl)acetamide]
13500 | COCc1oncc1C(=O)N1CCC[C@@H](N(C)C(=O)NCc2cc3cc(Cl)ccc3[nH]2)C1 [Compound 90, (R)-3-((5-chloro-1H-indol-2-yl)methyl)-1-(1-(5-(methoxymethyl)isoxazole-4-carbonyl)piperidin-3-yl)-1-methylurea]
1810 | CN(C(=O)NCc1cc2cc(Cl)ccc2[nH]1)[C@@H]1CCCN(C(=O)CCn2cccn2)C1 [Compound 91, (R)-1-(1-(3-(1H-pyrazol-1-yl)propanoyl)piperidin-3-yl)-3-((5-chloro-1H-indol-2-yl)methyl)-1-methylurea]
8990 | COCC1(C(=O)N2CCC[C@@H](N(C)C(=O)NCc3cc4cc(Cl)ccc4[nH]3)C2)CC1 [Compound 92, (R)-3-((5-chloro-1H-indol-2-yl)methyl)-1-(1-(1-(methoxymethyl)cyclopropane-1-carbonyl)piperidin-3-yl)-1-methylurea]
1630 | CN(C(=O)NCc1cc2cc(Cl)ccc2[nH]1)[C@@H]1CCCN(C(=O)C2CCCCO2)C1 (stereo partly drawn) [Compound 93, 3-((5-chloro-1H-indol-2-yl)methyl)-1-methyl-1-((3R)-1-(tetrahydro-2H-pyran-2-carbonyl)piperidin-3-yl)urea]
2750 | CN(C(=O)NCc1cc2cc(Cl)ccc2[nH]1)[C@@H]1CCCN(C(=O)CN2CCCC2=O)C1 [Compound 94, (R)-3-((5-chloro-1H-indol-2-yl)methyl)-1-methyl-1-(1-(2-(2-oxopyrrolidin-1-yl)acetyl)piperidin-3-yl)urea]
3240 | CN(C(=O)NCc1cc2cc(Cl)ccc2[nH]1)[C@@H]1CCCN(C(=O)C2CCOCC2)C1 [Compound 95, (R)-3-((5-chloro-1H-indol-2-yl)methyl)-1-methyl-1-(1-(tetrahydro-2H-pyran-4-carbonyl)piperidin-3-yl)urea]
933 | CC(=O)N1CC(C(=O)N2CCC[C@@H](N(C)C(=O)NCc3cc4cc(Cl)ccc4[nH]3)C2)C1 [Compound 96, (R)-1-(1-(1-acetylazetidine-3-carbonyl)piperidin-3-yl)-3-((5-chloro-1H-indol-2-yl)methyl)-1-methylurea]
1340 | CN(C(=O)NCc1cc2cc(Cl)ccc2[nH]1)[C@@H]1CCCN(C(=O)C2(O)CCCC2)C1 [Compound 97, (R)-3-((5-chloro-1H-indol-2-yl)methyl)-1-(1-(1-hydroxycyclopentane-1-carbonyl)piperidin-3-yl)-1-methylurea]
3000 | CN(C(=O)NCc1cc2cc(Cl)ccc2[nH]1)[C@@H]1CCCN(C(=O)CC2(O)CCC2)C1 [Compound 98, (R)-3-((5-chloro-1H-indol-2-yl)methyl)-1-(1-(2-(1-hydroxycyclobutyl)acetyl)piperidin-3-yl)-1-methylurea]
745 | CN(C(=O)NCc1cc2cc(Cl)ccc2[nH]1)[C@@H]1CCCN(C(=O)C2CC(C)(O)C2)C1 (stereo partly drawn) [Compound 99, (R)-3-((5-chloro-1H-indol-2-yl)methyl)-1-(1-(3-hydroxy-3-methylcyclobutane-1-carbonyl)piperidin-3-yl)-1-methylurea]
380 | CN(C(=O)NCc1cc2cc(Cl)ccc2[nH]1)[C@@H]1CCCN(C(=O)c2cccc3c2OCC3)C1 [Compound 100, (R)-3-((5-chloro-1H-indol-2-yl)methyl)-1-(1-(2,3-dihydrobenzofuran-7-carbonyl)piperidin-3-yl)-1-methylurea]
2930 | CN(C)C(=O)NCC(=O)N1CCC[C@@H](N(C)C(=O)NCc2cc3cc(Cl)ccc3[nH]2)C1 [Compound 101, (R)-3-((5-chloro-1H-indol-2-yl)methyl)-1-(1-((dimethylcarbamoyl)glycyl)piperidin-3-yl)-1-methylurea]
1800 | Cc1cnc2ncc(C(=O)N3CCC[C@@H](N(C)C(=O)NCc4cc5cc(Cl)ccc5[nH]4)C3)n2c1 [Compound 102, (R)-3-((5-chloro-1H-indol-2-yl)methyl)-1-methyl-1-(1-(6-methylimidazo[1,2-a]pyrimidine-3-carbonyl)piperidin-3-yl)urea]
2240 | CN(C(=O)NCc1cc2cc(Cl)ccc2[nH]1)[C@@H]1CCCN(C(=O)C2CN(S(C)(=O)=O)C2)C1 [Compound 103, (R)-3-((5-chloro-1H-indol-2-yl)methyl)-1-methyl-1-(1-(1-(methylsulfonyl)azetidine-3-carbonyl)piperidin-3-yl)urea]
6780 | CCC(NC(C)=O)C(=O)N1CCC[C@@H](N(C)C(=O)NCc2cc3cc(Cl)ccc3[nH]2)C1 (stereo partly drawn) [Compound 104, N-(1-((R)-3-(3-((5-chloro-1H-indol-2-yl)methyl)-1-methylureido)piperidin-1-yl)-1-oxobutan-2-yl)acetamide]
